Assay results as given in PMC10733349, “Synthesis and in-vitro anti-proliferative with antimicrobial activity of new coumarin containing heterocycles hybrids” (Scientific Reports, 2023).
≈ marks a conversion by molar mass, not a printed value. Where “and” joins values, the source holds several entries; their conditions need not be identical. Equal values may be shown once.

Experiments:
[1] = tested on: MDA-MB-231 cell line; test: MTT anti-proliferative assay, MDA-MB-231; type: cell-based, Human; conditions: for IC50: MDA-MB-231, MTT, 2 days; for Selective index: SI = IC50 normal cells (WISH)/IC50 MDA-MB-231
Source text: (§1) Cell lines; WISH cell line (Human amnion-derived normal epithelial cells, CCL-25), MDA-MB-231 cell line (Human, mammary gland/breast adenocarcinoma, HTB-26), CaCo-2 cell line (Human Colorectal adenocarcinoma, epithelial cells, HTB-37), A549 cell line (Human Lung adenocarcinoma, epithelial cells, CCL-185) cell lines and HepG-2 (liver hepatocellular carcinoma, HEPG2, HB-8065) were obtained from ATCC, originally with license and serial numbers as mentioned.
(§2) The safety assays of coumarin hybrids on noncancerous cell lines and their anticancer effects on cancerous cells were gauged utilizing MTT-assay (Promega) in accordance with the instruction protocol. Starting from 60 to 200 µM, serial dilutions of coumarin hybrids were prepared in sterile DMSO to be treated cell lines at final concentrations 30 to 100 µM. The treated cells were incubated for 2 days, and the cellular cytotoxicity was detected by quantifying the solubilized formazan in DMSO at 570 nm. The inhibition concentration of 50 (IC50) was calculated from the cytotoxicity% curve using GraphPad prism 9.
(§3) Cancer cell selectivity index of Coumarin hybrids samples were measured as explained by, with a minor modification; (SI = IC50nc/IC50cc), where IC50nc refers to the value of IC50 of the coumarin hybrids compounds on normal cells, while IC50cc refers to the IC50 of the coumarin hybrids compounds on cancer cell line.

[2] = tested on: Streptococcus mutans; test: Antimicrobial microplate assay (MIC), S. mutans; type: cell-based; conditions: two values per compound
Source text: (§4) Microbial strains: Escherichia coli, pseudomonas aeruginosa, Staphylococcus aureus, Streptococcus mutans and Candida albicans were collected from the microbial culture collection of Biopharmaceutical Products Research Department, Genetic Engineering and Biotechnology Research Institute, SRTA-City, New Borg El-Arab city, Alexandria, Egypt.
(§5) The antimicrobial activity of coumarin hybrids samples were checked against different multiple drug resistant microorganisms (Escherichia coli, pseudomonas aeruginosa, Staphylococcus aureus and Streptococcus mutans and Candida albicans) using various concentrations (30 to 100 µM). An aliquot of 100.0 µl of each sample concentration was added to an equal volume of each microbial growth dilution (about 10^6 CFU/ml) and inoculated into 96 well plate. Furthermore, 100.0 µl of LB media was added to 100.0 µl of microbial growth to set as the negative control group. After that, the inoculated plates were incubated overnight at 37 °C then, the microbial turbidity was measured using automated ELIZA microplate reader (BINDER BIOTECK E LX 800) adjusted at 620 nm. The microbial inhibition percentage after treatments were quantified using the following equation:1 Inhibition percentage=A-A1/A0×100. where, A: the treatment group absorbance, A1: the blank absorbance, and A0: the control group absorbance.

[3] = tested on: Staphylococcus aureus; test: Antimicrobial microplate assay (MIC), S. aureus; type: cell-based; conditions: Staph. aureus, two values per compound
Source text: as §4, §5

[4] = tested on: HepG-2; test: MTT anti-proliferative assay, HepG-2; type: cell-based, human; conditions: for IC50: HepG-2, MTT, 2 days; for Selective index: SI = IC50 normal cells (WISH)/IC50 HepG-2
Source text: as §1, §2, §3

[5] = tested on: A549 cell line; test: MTT anti-proliferative assay, A549; type: cell-based, Human; conditions: for IC50: Homo sapiens, A549, 48 h, A549, MTT, 2 days; for Selective index: SI = IC50 normal cells (WISH)/IC50 A549
Source text: as §1, §2, §3

[6] = tested on: CaCo-2 cell line; test: MTT anti-proliferative assay, CaCo-2; type: cell-based, Human; conditions: for IC50: CaCo-2, MTT, 2 days; for Selective index: SI = IC50 normal cells (WISH)/IC50 CaCo-2
Source text: as §1, §2, §3

[7] = tested on: Candida albicans; test: Antimicrobial microplate assay (MIC), C. albicans; type: cell-based; conditions: two values per compound
Source text: as §4, §5

[8] = tested on: Escherichia coli; test: Antimicrobial microplate assay (MIC), E. coli; type: cell-based; conditions: two values per compound
Source text: as §4, §5

[9] = tested on: WISH cell line; test: MTT safety assay on WISH normal cells; type: cell-based, Human; conditions: 2 days
Source text: as §1, §2

[10] = tested on: pseudomonas aeruginosa; test: Antimicrobial microplate assay (MIC), P. aeruginosa; type: cell-based
Source text: as §4, §5

SMILES	IC50 ([1]; Homo sapiens, MDA-MB-231, 48 h) [µM]	Selective index [1]	MIC ([2]; Streptococcus mutans) [µM]	MIC [2]	MIC [3] [µM]	MIC ([3]; Staphylococcus aureus) [µM]	IC50 ([4]; Homo sapiens, HepG2, 48 h) [µM]	Selective index [4]	IC50 [5] [µM]	Selective index [5]	IC50 ([6]; Homo sapiens, Caco-2, 48 h) [µM]	Selective index [6]	MIC ([7]; Candida albicans) [µM]	MIC [7]	MIC ([8]; Escherichia coli) [µM]	MIC [8] [µM]	IC50 ([9]; Homo sapiens, 48 h) [µM]	other results
O=C(NNc1ccnc2cc(Cl)ccc12)c1cc2ccccc2oc1=O [7a, N'-(7-Chloroquinolin-4-yl)-2-oxo-2H-chromene-3-carbohydrazide]	211	0.3752	248 (≈ 90.7 µg/mL)	246 µM (≈ 90 µg/mL)	31 (≈ 11.3 µg/mL)	30 (≈ 11 µg/mL)	75.4	1.051	51.7	1.5 and 1.533	57.1	1.38 and 1.39	62 (≈ 22.7 µg/mL)	61 µM (≈ 22.3 µg/mL)	29 (≈ 10.6 µg/mL)	28 (≈ 10.2 µg/mL)	79.3	melting point: 294 to 296 °C
O=C(NCCNc1ccnc2cc(Cl)ccc12)c1cc2ccccc2oc1=O [7b, N-(2-((7-Chloroquinolin-4-yl)amino)ethyl)-2-oxo-2H-chromene-3-carboxamide]	154	0.6038	100 (≈ 39.4 µg/mL)	103 µM (≈ 40.6 µg/mL)	22 (≈ 8.66 µg/mL)	20 (≈ 7.88 µg/mL)	88.7	1.049	54.8	1.6 and 1.695	52.8	1.76 and 1.764	28 (≈ 11 µg/mL)	27 µM (≈ 10.6 µg/mL)	45 (≈ 17.7 µg/mL)	43 (≈ 16.9 µg/mL)	92.9	melting point: 274 to 276 °C; IC50 [6]: 52.8 µM
O=C(NCCCNc1ccnc2cc(Cl)ccc12)c1cc2ccccc2oc1=O [7c, N-(3-((7-Chloroquinolin-4-yl)amino)propyl)-2-oxo-2H-chromene-3-carboxamide]	51	2.20 and 2.21	152 (≈ 62 µg/mL)	150 µM (≈ 61.2 µg/mL)	29 (≈ 11.8 µg/mL)	28 (≈ 11.4 µg/mL)	133	0.8456	97.4	1.155	57.3	1.969	31 (≈ 12.6 µg/mL)	30 µM (≈ 12.2 µg/mL)	125 (≈ 51 µg/mL)	126 (≈ 51.4 µg/mL)	112	IC50 [1]: 51 µM
O=C(Nc1ccc(Nc2ccnc3cc(Cl)ccc23)cc1)c1cc2ccccc2oc1=O [7d, N-(4-((7-Chloroquinolin-4-yl)amino)phenyl)-2-oxo-2H-chromene-3-carboxamide]	103	1.351	130 (≈ 57.4 µg/mL)	132 µM (≈ 58.3 µg/mL)	30 (≈ 13.3 µg/mL)	29 (≈ 12.8 µg/mL)	82.8	1.67 and 1.671	–	0.67 and 0.6789	51.6	2.666	62 (≈ 27.4 µg/mL)	60 µM (≈ 26.5 µg/mL)	46 (≈ 20.3 µg/mL)	45 (≈ 19.9 µg/mL)	138	IC50 [4]: 82.8 µM; IC50 [6]: 52 µM
O=C(Nc1ccc(Cc2ccc(Nc3ccnc4cc(Cl)ccc34)cc2)cc1)c1cc2ccccc2oc1=O [7e, N-(4-(4-((7-Chloroquinolin-4-yl)amino)benzyl)phenyl)-2-oxo-2H-chromene-3-carboxamide]	70.5	1.32	160 (≈ 85.1 µg/mL)	162 µM (≈ 86.2 µg/mL)	24 (≈ 12.8 µg/mL)	25 (≈ 13.3 µg/mL)	351	0.2658	152	0.6129	86.3	1.079	25 (≈ 13.3 µg/mL)	26 µM (≈ 13.8 µg/mL)	19 (≈ 10.1 µg/mL)	16 (≈ 8.51 µg/mL)	93.1	–
O=C(NCCNc1c2ccccc2nc2ccccc12)c1cc2ccccc2oc1=O [10b, N-(2-(Acridin-9-ylamino)ethyl)-2-oxo-2H-chromene-3-carboxamide]	–	–	3.2 to 66 (≈ 1.31 to 27 µg/mL)	5 µM and 5.5 µM	3.2 (≈ 1.31 µg/mL)	3.2 to 66 (≈ 1.31 to 27 µg/mL)	–	–	–	–	–	–	–	–	–	–	–	MIC [10]: 14.8 µM (≈ 6.06 µg/mL)
O=C(NCCCNc1c2ccccc2nc2ccccc12)c1cc2ccccc2oc1=O [10c, N-(3-(Acridin-9-ylamino)propyl)-2-oxo-2H-chromene-3-carboxamide]	109	0.8462	–	–	–	–	107	0.5533	130	–	–	0.77	–	–	–	–	56.7	melting point: 261 to 263 °C; MIC [10]: 15.4 µM (≈ 6.52 µg/mL); IC50 [6]: 56.7 µM; IC50 ([6]; listed as 10): 145 µM; Selective index ([6]; listed as 10): 0.7785
Cn1c2nc3ccccc3c-2c(NCCNC(=O)c2cc3ccccc3oc2=O)c2ccccc21 [13b, N-(2-((5-Methyl-5H-indolo[2,3, b]quinolin-11-yl)amino)ethyl)-2-oxo-2H-chromene-3-carboxamide]	–	–	–	–	–	–	–	–	–	–	–	–	–	0.0011 µM and 0.0014 µM	–	–	–	–
Cn1c2nc3ccccc3c-2c(NCCCNC(=O)c2cc3ccccc3oc2=O)c2ccccc21 [13c, N-(3-((5-methyl-5H-indolo[2,3-b]quinolin-11-yl)amino)propyl)-2-oxo-2H-chromene-3-carboxamide]	89.9	–	–	–	–	–	71	–	65	–	84.8	–	–	–	–	–	95.9	–
O=c1ccc2ccccc2o1 [Ct, coumarin]	111	1.599	240 (≈ 35.1 µg/mL)	241 µM (≈ 35.2 µg/mL)	63 (≈ 9.21 µg/mL)	62 (≈ 9.06 µg/mL)	232	0.7613	260	0.6915	99.5	1.701	30 (≈ 4.38 µg/mL)	29 µM (≈ 4.24 µg/mL)	59 (≈ 8.62 µg/mL)	58 (≈ 8.48 µg/mL)	176	–
COc1cccc2c1C(=O)c1c(O)c3c(c(O)c1C2=O)C[C@@](O)(C(=O)CO)C[C@@H]3O[C@H]1C[C@H](N)[C@H](O)[C@H](C)O1 [DOX, doxorubicin, reference compound]	0.655	1.954	–	–	–	–	1.18	1.653	3.78	0.7653	2.91	0.6148	–	–	–	–	1.76	–
O=C(O)c1cc2ccccc2oc1=O [compound 1, coumarin-3-carboxylic acid, reference compound]	132	2.521	17 (≈ 3.23 µg/mL)	16.65 µM (≈ 3.17 µg/mL)	8.5 (≈ 1.62 µg/mL)	8 (≈ 1.52 µg/mL)	924	0.3617	351	0.9497	1110	0.3027	10 (≈ 1.9 µg/mL)	9.8 µM (≈ 1.86 µg/mL)	20 (≈ 3.8 µg/mL)	21.76 (≈ 4.14 µg/mL)	334	IC50 [9]: 334 µM
